As usually defined, the MIC is the smallest concentration in the dilution series that meets the test's criterion for growth inhibition. Broadly, the IC50 is the concentration needed to halve the response being measured.

The test system of one data set is MRSA BAA-44. The data set is described as follows: MIC broth microdilution assay. Type of data set: cell-based. Conditions: Staphylococcus aureus; Table 1; read-out: MIC MRSA BAA-44.
Another data set has as its system MRSA-1. The data set is described as follows: MIC broth microdilution assay. Type of data set: cell-based, Staphylococcus aureus. Conditions: Staphylococcus aureus, MRSA; Table 1; read-out: MIC MRSA-1. (In broth dilution the organism is exposed to a series of concentrations in liquid medium.)
A further data set relates to MRSA-2. The data set is described as follows: MIC broth microdilution assay. Type of data set: cell-based, Staphylococcus aureus. As to conditions: Staphylococcus aureus, MRSA; Table 1; read-out: MIC MRSA-2.
Another data set has as its system MtB H37Ra. The experiment in a line: MIC assay for Mycobacterium tuberculosis. Type of data set: cell-based.
The nature of data set [1]: LDH release assay for HeLa cytotoxicity. Type of data set: cell-based. Conditions: human, HeLa cells; LDH release, 24 hours; tested at 25, 50 and 100 µM; read-out: HeLa Cytotox. IC50.
For data set [2], the system named is MRSA BAA-1707. The data set is described as follows: Calgary Biofilm Device (CBD) MBC/MBEC assay. Type of data set: cell-based, Staphylococcus aureus. Conditions: Staphylococcus aureus, 24 h, CBD, planktonic killing, 24 hours treatment; read-out: MRSA BAA-1707 MBC.
In another data set the test system is MRSE 35984. The experiment in a line: Calgary Biofilm Device (CBD) MBC/MBEC assay. Type of data set: cell-based, Staphylococcus epidermidis. As to conditions: Staphylococcus epidermidis, MRSE; CBD, planktonic killing; read-out: MRSE 35984 MBC.
The test system of the next data set is VRE 700221. The experiment in a line: Calgary Biofilm Device (CBD) MBC/MBEC assay. Conditions: Enterococcus, VRE; CBD, planktonic killing; read-out: VRE 700221 MBC. Type of data set: cell-based, Enterococcus faecium.
A short description of data set [3]: Hemolysis assay with red blood cells. As to conditions: human, pH 7.2.
Data set [4] deals with MRSA BAA-1707. The data set is described as follows: MIC broth microdilution assay. Type of data set: cell-based, Staphylococcus aureus. As to conditions: Staphylococcus aureus.
Another data set concerns S. epi 12228. The experiment in a line: MIC broth microdilution assay. Type of data set: cell-based, Staphylococcus epidermidis. Conditions: Staphylococcus epidermidis, 12228.
The next data set deals with four MRSA isolates. The data set is described as follows: MIC assays, panel of four MRSA isolates. Type of data set: cell-based. As to conditions: Staphylococcus aureus, range over isolates, read-out: MIC against a panel of four MRSA isolates.

Values after ≈ are worked out from the molar mass of the structure shown. Read-outs that look alike come from different tables or passages of the source.

Regarding `Cc1cc(Cl)c2nc3c(C)cc(Br)c(O)c3nc2c1` [HP 9], the MIC in the data set on MRSA BAA-44 was found to be 1.56 µM (≈ 0.527 µg/mL); with MRSA-1, 1.56 µM (≈ 0.527 µg/mL); in the data set on MRSA-2, 2.35 µM (≈ 0.793 µg/mL); with MtB H37Ra (168 h, seven days), 50 µM. In addition, the IC50 at 24 h in [1] is over 100 µM. Further, the MBC with MRSA BAA-1707 [2] is over 200 µM; in the data set on MRSE 35984 it was 12.5 µM (≈ 4.22 µg/mL); in the data set with VRE 700221, 12.5 µM (≈ 4.22 µg/mL). The hemolysis at 1 h, 200 µM in data set [3] was at most 1%.

With `Oc1c(Br)cc(Br)c2nc3ccc(Cl)cc3nc12` [HP 22], the MIC with MRSA BAA-1707 [4] (Table 1, three independent experiments, read-out: MIC MRSA BAA-1707) was determined as 0.15 µM (≈ 0.0583 µg/mL); with MRSA BAA-1707 [4] (Table 3, read-out: MRSA BAA-1707 MIC) it was 0.15 µM (≈ 0.0583 µg/mL); with MRSA BAA-1707 [4] (single plate shown as picture, read-out: MIC (µM), MIC Assay against MRSA BAA-1707), 0.1 µM (≈ 0.0388 µg/mL); in the data set with MRSA-1, 0.15 µM (≈ 0.0583 µg/mL); in the data set on S. epi 12228 (Table 1, read-out: MIC S. epi 12228), 12.5 µM (≈ 4.86 µg/mL); with S. epi 12228 (single plate shown as picture, read-out: MIC (µM), MIC Assay Against S. epidermidis 12228), 12.5 µM (≈ 4.86 µg/mL). The MIC against MtB H37Ra is 2.4 µg/mL; in the data set with MtB H37Ra (168 h, seven days), 6.25 µM; in the data set on four MRSA isolates, 0.05 to 0.59 µM (≈ 0.0194 to 0.229 µg/mL). Moreover, the IC50 at 24 h in [1] is over 100 µM. The compound further had a hemolysis at 1 h, 200 µM in data set [3] of at most 1%.

Source of the values: paper PMC5435703 (Scientific Reports, 2017).
